Measurements from patent publication US20110288154A1, “RNA Interference Mediated Inhibition of Epithelial Sodium Channel (ENaC) Gene Expression Using Short Interfering Nucleic Acid (siNA)” (MERCK & CO., INC., priority 2008, published 2011).
[invAb] = inverted abasic unit; m = 2'-O-methyl; r = 2'-OH (RNA); f = 2'-fluoro

Tests used:
mSCNN1A mRNA = test: Screening of ENaCα siNAs in mouse NIH 3T3 cells (quantitative RT-PCR); format: cell-based; parameters: Percent Reduction of the mSCNN1A mRNA relative to a non-targeting control siNA / Mouse % KD (efficacy of ENaCα mRNA knockdown): concentration or dose not given beside the values; settings: mouse NIH 3T3 cells, n = 3; for Mean (mSCNN1A expression normalized to the level of m36B4) / Percent Reduction of the mSCNN1A mRNA relative to a non-targeting control siNA / Avg 36B4 Expression: 24 hours post-transfection; for Avg ENaCα Expression (mSCNN1A): harvested 24 hours post-transfection; for Avg 36B4 Expression: housekeeping gene used for normalisation
Procedure: siNA constructs (Table 1b) may be tested for efficacy in reducing ENaC RNA expression in, for example, A549 human lung carcinoma cells. A549 (human; ATCC cat# CCL-185) cells were cultured at 37° C. in the presence of 5% CO2 and grown in Ham's F12K medium with 2 mM L-glutamine adjusted to contain 1.5 g/L sodium bicarbonate and supplemented with fetal bovine serum at a final concentration of 10% and 100 U/mL penicillin. The A549 cells were plated approximately 24 hours before transfection in 96-well plates at 7,500 cells/well, 100 μl/well. After 24 hours complexes containing siNA and Lipofectamine 2000 (Invitrogen) were created as follows: a solution of Lipofectamine 2000 in OPTI-MEM was prepared containing Lipofectamine 2000 at a final concentration of 14 μg/ml. In parallel, solutions of the siNAs were prepared in OPTI-MEM at a final concentration of 150 nM. After both solutions were incubated at 20° C. for 20 minutes an equal volume of the siNA solutions and the Lipofectamine 2000 solution were added together for each of the siNAs. The resultant solution has the siNAs at a final concentration of 75 nM and Lipofectamine 2000 at a final concentration of 7 μg/ml. This solution was incubated at 20° C. for 20 minutes. After incubation 50 μl of the solution were added to each of the wells (in triplicate). The final concentration of siNA in each well was 25 nM and the final concentration of Lipofectamine 2000 in each well was 2.33 μg/ml. The plates were incubated for 48 hours with no change of media before harvesting. Dose response curves were determined in a similar manner with each concentration being done in triplicate and maintaining a constant amount of Lipofectamine 2000 in each transfection.
(§1) A series of probes and primers were used to detect the various mRNA transcripts of the genes of ENaCa and GAPDH in mouse, rat, and human cell lines. The assays were performed on an ABI 7500 instrument, according to the manufacturer's instructions. Within each experiment, the baseline was set in the exponential phase of the amplification curve, and based on the intersection point of the baselines with the amplification curve, a Ct value was assigned by the instrument. This Ct value was then assigned a QTY value based on the Standard Curve. The standard curve in the various experiments herein used 1 ng to 300 ng of RNA extracted from the same cell line used for the experimental transfections.
(§2) All IC50 values were calculated from the data using GraphPad Prizm software, specifically a sigmoidal, variable slope curve for simple ligand binding. Also, unless otherwise indicated, all calculations of the efficacy and potency (e.g., % knockdown) of the siNAs were done relative to a non-targeting control siNA. If reported, P-values were computed using The Students t-test, including the Welch Correction for unequal variances.
(§3) In all of the calculations of the % knock-down of mRNA, the calculation was made relative to the normalized level of expression of the gene of interest in the samples treated with the non-targeting control (NTC) unless otherwise indicated. The gene of interest expression level was divided by the level of expression of GAPDH or 36B4 (depending on the species) in each sample. The three replicates for each condition in each experiment were averaged and the standard deviation of those samples was calculated. The following formula was then used to calculate the % of knock-down of the gene of interest:
(§4) The ENaCα siNAs were designed and synthesized as described previously. The siNAs were screened in three cell lines. Human A549 cells, mouse NIH 3T3 and Rat H-4-II-E cells. The data from the screen of ENaCa siNAs in all three species is shown in Tables 3a, 3b, 4a, 4b, 5a, and 5b and a summary of the data for certain siNA molecules is presented in Table 6. Each screen was performed at 24 hrs. The decision to use this time point was based upon the degree of knockdown of the mRNA seen at that time point.

rSCNN1A (r ENaCα) mRNA = test: Screening of ENaCα siNAs in Rat H-4-II-E cells (quantitative RT-PCR); format: cell-based; parameters: Percent Reduction of the r ENaCα mRNA relative to a non-targeting control siNA (NTCs) / Rat % KD (efficacy of ENaCα mRNA knockdown): concentration or dose not given beside the values; settings: Rat H-4-II-E cells, n = 3; for Mean (rSCNN1A expression normalized to the level of rGAPDH) / Percent Reduction of the r ENaCα mRNA relative to a non-targeting control siNA (NTCs) / Avg GAPDH Expression (rGAPDH): 24 hours post-transfection; for Avg ENaCα Expression (rSCNN1A): harvested 24 hours post-transfection; for Avg GAPDH Expression (rGAPDH): housekeeping gene used for normalisation
Procedure: as §1, §2, §3, §4

Row | Substance | Mean (mSCNN1A expression normalized to the level of m36B4) (mSCNN1A mRNA) | Percent Reduction of the mSCNN1A mRNA relative to a non-targeting control siNA (mSCNN1A mRNA) [%] | Avg ENaCα Expression (mSCNN1A) (mSCNN1A mRNA) | Avg 36B4 Expression (mSCNN1A mRNA) | Mean (rSCNN1A expression normalized to the level of rGAPDH) (rSCNN1A (r ENaCα) mRNA) | Percent Reduction of the r ENaCα mRNA relative to a non-targeting control siNA (NTCs) (rSCNN1A (r ENaCα) mRNA) [%] | Avg ENaCα Expression (rSCNN1A) (rSCNN1A (r ENaCα) mRNA) | Avg GAPDH Expression (rGAPDH) (rSCNN1A (r ENaCα) mRNA)
1 | B cAGAGcAGAAuGAcuucAu TTB / AUGAAGucAuucuGcucuGUU (sense CAGAGCAGAAUGACUUCAUTT; antisense AUGAAGUCAUUCUGCUCUGUU; siRNA; sense: DNA at AGT, 2'-fluoro at CU, [invAb] at 5' end, 3' end, backbone not given here; antisense: sugars from the 5' end rrrmmmffmffffmffffmmm, backbone not given here) [Site 1100] | 0.24 | −1.5 | 3.43 | 14.25 | 0.83 | 35.4 | 21.68 | 26.15
2 | B cAcAAccGcAuGAAGAcGG TTB / CCGucuucAuGcGGuuGuGUU (chain 1 CACAACCGCAUGAAGACGGTT; chain 2 CCGUCUUCAUGCGGUUGUGUU; siRNA; chain 1: DNA at AGT, 2'-fluoro at CU, [invAb] at 5' end, 3' end, backbone not given here; chain 2: sugars from the 5' end rrrfffffmfmfmmffmfmmm, backbone not given here) [Site 334] | 0.21 | 12.3 | 3.57 | 16.98 | 0.85 | 33.7 | 16.10 | 19.11
3 | B cAcuccuGcuuccAGGAGA TTB / UCUccuGGAAGcAGGAGuGUU (sense CACUCCUGCUUCCAGGAGATT; antisense UCUCCUGGAAGCAGGAGUGUU; siRNA; sense: DNA at AGT, 2'-fluoro at CU, [invAb] at 5' end, 3' end, backbone not given here; antisense: sugars from the 5' end rrrfffmmmmmfmmmmmfmmm, backbone not given here) [Site 1351] | 0.22 | 9.6 | 2.56 | 11.91 | 0.72 | 43.7 | 18.06 | 24.87
4 | B cGcAuGAAGAcGGccuucu TTB / AGAAGGccGucuucAuGcGUU (chain 1 CGCAUGAAGACGGCCUUCUTT; chain 2 AGAAGGCCGUCUUCAUGCGUU; siRNA; chain 1: DNA at AGT, 2'-fluoro at CU, [invAb] at 5' end, 3' end, backbone not given here; chain 2: sugars from the 5' end rrrmmmffmfffffmfmfmmm, backbone not given here) [Site 340] | 0.23 | 5.4 | 3.35 | 14.93 | 1.07 | 16.7 | 22.68 | 21.20
5 | B ccAuccGccuGGuGuGcuc TTB / GAGcAcAccAGGcGGAuGGUU (chain 1 CCAUCCGCCUGGUGUGCUCTT; chain 2 GAGCACACCAGGCGGAUGGUU; siRNA; chain 1: DNA at AGT, 2'-fluoro at CU, [invAb] at 5' end, 3' end, backbone not given here; chain 2: sugars from the 5' end rrrfmfmffmmmfmmmfmmmm, backbone not given here) [Site 311] | 0.23 | 4.6 | 3.83 | 16.80 | 0.83 | 35.2 | 16.42 | 19.71
6 | B ccGcAuGAAGAcGGccuuc TTB / GAAGGccGucuucAuGcGGUU (chain 1 CCGCAUGAAGACGGCCUUCTT; chain 2 GAAGGCCGUCUUCAUGCGGUU; siRNA; chain 1: DNA at AGT, 2'-fluoro at CU, [invAb] at 5' end, 3' end, backbone not given here; chain 2: sugars from the 5' end rrrmmffmfffffmfmfmmmm, backbone not given here) [Site 339] | 0.35 | −44.9 | 5.05 | 14.61 | 0.79 | 38.3 | 15.81 | 19.92
7 | B cccuGcuGuccAcAGuGAc TTB / GUCAcuGuGGAcAGcAGGGUU (sense CCCUGCUGUCCACAGUGACTT; antisense GUCACUGUGGACAGCAGGGUU; siRNA; sense: DNA at AGT, 2'-fluoro at CU, [invAb] at 5' end, 3' end, backbone not given here; antisense: sugars from the 5' end rrrmffmfmmmfmmfmmmmmm, backbone not given here) [Site 1121] | 0.27 | −14.5 | 3.39 | 11.45 | 0.84 | 34.6 | 19.44 | 23.01
8 | B cuGuGcAAccAGAAcAAAu TTB / AUUuGuucuGGuuGcAcAGUU (chain 1 CUGUGCAACCAGAACAAAUTT; chain 2 AUUUGUUCUGGUUGCACAGUU; siRNA; chain 1: DNA at AGT, 2'-fluoro at CU, [invAb] at 5' end, 3' end, backbone not given here; chain 2: sugars from the 5' end rrrfmffffmmffmfmfmmmm, backbone not given here) [Site 781] | 0.22 | 9.8 | 3.50 | 16.49 | 0.86 | 32.8 | 23.09 | 26.57
